The source of these data is ChEMBL document CHEMBL1201862, “PubChem BioAssay data set” (2004).

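Cultured in 96-well plates, cells were exposed to test compound for 48 hours across five concentrations. GI50 marks 50% less growth.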 The source made the active and inactive calls. No stated cut-off is given here; in the data, active = GI50 up to about 1.1 µM and inactive = higher. A value given as a limit tells only on which side of the number the result lay.

Test systems include BT-549; DU-145; EKVX; HCT-116; HT-29; MDA-MB-231; MOLT-4; Malme-3M; NCI-H226; NCI/ADR-RES; OVCAR-8; SF-268; SF-295; SK-MEL-28; SK-OV-3; SNB-75; SW-620; T47D; UACC-62; OVCAR-4.
Common to all, as to experiment: NCI tumour cell line growth inhibition, 48 h

Regarding `O=C(/C=C/c1ccc(O)c(O)c1)OCCc1ccc2ccccc2c1`, the GI50 was 2.91 µM (inactive) in the assay with BT-549; 11.9 µM (inactive) in the assay on DU-145; 14.6 µM (inactive) in the assay with EKVX; 5.24 µM (inactive) in the assay with HCT-116; 12.9 µM (inactive) with HT-29; 10.6 µM (inactive) in the assay with MDA-MB-231. Further, the GI50 with MOLT-4 is 2.2 µM (inactive); with Malme-3M it was 10.9 µM (inactive); with NCI-H226, 14.8 µM (inactive); with NCI/ADR-RES, 4.08 µM (inactive); in the assay on OVCAR-8 it was 10.4 µM (inactive); in the assay with SF-268, 10.9 µM (inactive). Further, the GI50 was 10.9 µM (inactive) in the assay on SF-295; 9.14 µM (inactive) in the assay with SK-MEL-28; 13.5 µM (inactive) in the assay with SK-OV-3; 1.87 µM (inactive) with SNB-75; 6.93 µM (inactive) with SW-620; 4.67 µM (inactive) with T47D. The GI50 in the assay on UACC-62 is 3.69 µM (inactive).

For the molecule `COc1cc(C2c3cc4c(cc3[C@H](NC(=O)c3cccs3)C3COC(=O)[C@H]23)OCO4)cc(OC)c1OC` (stereo partly drawn), the GI50 with BT-549 was < 0.01 µM (active); in the assay on DU-145, < 0.01 µM (active); in the assay on EKVX, 0.0731 µM (active); in the assay with HCT-116, < 0.0131 µM (active); with HT-29, 0.012 µM (active); in the assay with MDA-MB-231, < 0.01 µM (active). For the same molecule, the GI50 in the assay with MOLT-4 is < 0.0149 µM (active); in the assay on Malme-3M, 92.3 µM (inactive); with NCI-H226 it was 0.668 µM (active); in the assay on NCI/ADR-RES, 0.026 µM (active); with OVCAR-8 it was < 0.01 µM (active); with SF-268, < 0.0195 µM (active). Moreover, the GI50 was < 0.01 µM (active) in the assay with SF-295; 0.0708 µM (active) with SK-MEL-28; 0.027 µM (active) with SK-OV-3; < 0.0152 µM (active) in the assay with SNB-75; < 0.016 µM (active) in the assay on SW-620; 46.7 µM (inactive) with T47D. The GI50 in the assay with UACC-62 was < 0.0128 µM (active).

Take `COc1cc2nc(-c3ccccc3F)nc(O)c2cc1OC`: the GI50 in the assay on BT-549 was > 100 µM (inactive); with DU-145, > 100 µM (inactive); in the assay on EKVX, > 100 µM (inactive); in the assay with HCT-116, > 100 µM (inactive); in the assay with HT-29 it was 59.4 µM (inactive); in the assay on MDA-MB-231, > 100 µM (inactive). Also, the GI50 with MOLT-4 was 70.3 µM (inactive); in the assay on Malme-3M, > 100 µM (inactive); in the assay with NCI-H226 it was > 100 µM (inactive); in the assay on NCI/ADR-RES, > 100 µM (inactive); in the assay with OVCAR-4 it was > 100 µM (inactive); with OVCAR-8, > 100 µM (inactive). In addition, the GI50 in the assay on SF-268 was > 100 µM (inactive); in the assay on SF-295, > 100 µM (inactive); in the assay on SK-OV-3 it was > 100 µM (inactive); in the assay with SNB-75, > 100 µM (inactive); in the assay with T47D, > 100 µM (inactive); in the assay on UACC-62, 60 µM (inactive).

For the molecule `NNC(=O)Cc1cccnc1`, the GI50 with BT-549, with DU-145, in the assay on EKVX, in the assay with HCT-116, in the assay on HT-29 and in the assay on MDA-MB-231 was > 100 µM (inactive) throughout. The GI50 in the assay with MOLT-4, with Malme-3M, in the assay with NCI/ADR-RES, with OVCAR-4, with OVCAR-8 and in the assay on SF-268 was > 100 µM (inactive) each time. Besides, the GI50 in the assay on SF-295, in the assay on SK-MEL-28, with SK-OV-3, in the assay on SNB-75, with SW-620 and in the assay on T47D was > 100 µM (inactive) throughout. Besides, the GI50 in the assay on UACC-62 was > 100 µM (inactive).

As for `CCCC(O)c1cn(C(NC(=O)c2ccccc2)P(=O)(OCC)OCC)nn1` (stereo not drawn), the GI50 with BT-549, with DU-145, with EKVX, with HCT-116, with HT-29 and with MDA-MB-231 was > 100 µM (inactive) in each case. Moreover, the GI50 in the assay on MOLT-4, in the assay with Malme-3M, with NCI-H226, in the assay with NCI/ADR-RES, with OVCAR-4 and with OVCAR-8 was > 100 µM (inactive) throughout. The GI50 in the assay on SF-268, with SF-295, in the assay with SK-MEL-28, in the assay with SNB-75, in the assay with SW-620 and with T47D was > 100 µM (inactive) each time. The GI50 in the assay with UACC-62 was 39.4 µM (inactive).

For the molecule `CCOC(=O)NC(OCCN(C)C)(C(F)(F)F)C(F)(F)F`, the GI50 with BT-549, in the assay with DU-145, in the assay with EKVX, in the assay with HCT-116, with HT-29 and with MDA-MB-231 was > 100 µM (inactive) in each case. Moreover, the GI50 with MOLT-4, in the assay on Malme-3M, in the assay with NCI-H226, with NCI/ADR-RES, in the assay with OVCAR-8 and with SF-268 was > 100 µM (inactive) each time. In addition, the GI50 in the assay with SF-295, in the assay with SK-MEL-28, in the assay with SK-OV-3, in the assay with SNB-75, in the assay on SW-620 and in the assay on T47D was > 100 µM (inactive) in each case. Also, the GI50 in the assay on UACC-62 was > 100 µM (inactive).

Take `CCOC(=O)c1cc(C2(O)CCN(Cc3ccccc3)C2=O)c(-c2cc(C)no2)[nH]1` (stereo not drawn): the GI50 in the assay with BT-549 was 66.2 µM (inactive); in the assay on DU-145 it was 88.9 µM (inactive); with EKVX, 41.4 µM (inactive); with HCT-116, 37.9 µM (inactive); in the assay on MDA-MB-231, 29 µM (inactive); in the assay with MOLT-4, 12.6 µM (inactive). Also, the GI50 in the assay on Malme-3M was > 100 µM (inactive); in the assay on NCI-H226, 55.7 µM (inactive); in the assay with NCI/ADR-RES, 38.5 µM (inactive); in the assay on OVCAR-4, 30.3 µM (inactive); in the assay with OVCAR-8, 37.3 µM (inactive); in the assay with SF-268, > 100 µM (inactive). The GI50 with SF-295 is 25.6 µM (inactive); with SK-MEL-28, 59.6 µM (inactive); with SNB-75, 26.6 µM (inactive); in the assay with SW-620, 47.1 µM (inactive); in the assay with T47D, 17.9 µM (inactive); in the assay on UACC-62, 47.8 µM (inactive).

Turning to `CN(C)CCCn1cnc2cc(Cl)c(Cl)cc21`, the GI50 was 66.7 µM (inactive) with BT-549; > 100 µM (inactive) in the assay with DU-145; > 100 µM (inactive) with EKVX; 48 µM (inactive) with HCT-116; 72.3 µM (inactive) in the assay with HT-29; > 100 µM (inactive) with MDA-MB-231. Moreover, the GI50 in the assay on Malme-3M, in the assay with NCI-H226, in the assay on NCI/ADR-RES, with OVCAR-4, in the assay on OVCAR-8 and in the assay with SF-268 was > 100 µM (inactive) in each case. In addition, the GI50 in the assay with SF-295 is > 100 µM (inactive); in the assay with SK-MEL-28, 17.9 µM (inactive); in the assay on SK-OV-3 it was > 100 µM (inactive); in the assay with SNB-75, 33.1 µM (inactive); in the assay on SW-620, > 100 µM (inactive); with T47D, 59.7 µM (inactive). Moreover, the GI50 in the assay with UACC-62 was 27.7 µM (inactive).

For the molecule `S=C1CSc2c(ccc3ccccc23)N1`, the GI50 in the assay with BT-549 is > 100 µM (inactive); in the assay with DU-145 it was > 100 µM (inactive); in the assay on EKVX, 21.7 µM (inactive); with HCT-116 it was > 100 µM (inactive); with HT-29 it was > 100 µM (inactive); in the assay with MDA-MB-231, > 100 µM (inactive). Also, the GI50 is 9.98 µM (inactive) in the assay on MOLT-4; > 100 µM (inactive) in the assay on Malme-3M; > 100 µM (inactive) in the assay with NCI-H226; > 100 µM (inactive) in the assay on NCI/ADR-RES; > 100 µM (inactive) in the assay on OVCAR-4; > 100 µM (inactive) with OVCAR-8. Further, the GI50 in the assay on SF-268, in the assay with SF-295, with SK-MEL-28, in the assay with SK-OV-3, in the assay on SNB-75 and with T47D was > 100 µM (inactive) throughout. For the same molecule, in the assay with UACC-62, the GI50 was > 100 µM (inactive).

On to `Cc1csc2c(P(=O)(OC(C)C)OC(C)C)c(-c3ccccc3)cn12`, for which the GI50 is 18.8 µM (inactive) with BT-549; 18.5 µM (inactive) in the assay on DU-145; 17.2 µM (inactive) in the assay on EKVX; 14.2 µM (inactive) in the assay on HCT-116; 15.6 µM (inactive) with HT-29; 17 µM (inactive) in the assay on MDA-MB-231. For the same molecule, the GI50 with MOLT-4 is 13 µM (inactive); in the assay with Malme-3M, 19.9 µM (inactive); in the assay with NCI/ADR-RES it was 18 µM (inactive); in the assay on OVCAR-4, 17.5 µM (inactive); in the assay on OVCAR-8, 17.4 µM (inactive); in the assay on SF-268, 16.6 µM (inactive). For the same molecule, the GI50 is 16.9 µM (inactive) in the assay with SF-295; 17.7 µM (inactive) in the assay with SK-MEL-28; 18.5 µM (inactive) with SK-OV-3; 14.5 µM (inactive) in the assay on SNB-75; 18.3 µM (inactive) in the assay with SW-620; 3.84 µM (inactive) in the assay on T47D. Further, the GI50 in the assay on UACC-62 is 6.62 µM (inactive).
